Experiments:
A. baumannii MsbA [1] = biological target: T1, A. baumannii MsbA (Acinetobacter baumannii, UniProt A0A0B9X4I2); settings: POPG nanodiscs, no TBT1
T1 sequence (A0A0B9X4I2 1-575): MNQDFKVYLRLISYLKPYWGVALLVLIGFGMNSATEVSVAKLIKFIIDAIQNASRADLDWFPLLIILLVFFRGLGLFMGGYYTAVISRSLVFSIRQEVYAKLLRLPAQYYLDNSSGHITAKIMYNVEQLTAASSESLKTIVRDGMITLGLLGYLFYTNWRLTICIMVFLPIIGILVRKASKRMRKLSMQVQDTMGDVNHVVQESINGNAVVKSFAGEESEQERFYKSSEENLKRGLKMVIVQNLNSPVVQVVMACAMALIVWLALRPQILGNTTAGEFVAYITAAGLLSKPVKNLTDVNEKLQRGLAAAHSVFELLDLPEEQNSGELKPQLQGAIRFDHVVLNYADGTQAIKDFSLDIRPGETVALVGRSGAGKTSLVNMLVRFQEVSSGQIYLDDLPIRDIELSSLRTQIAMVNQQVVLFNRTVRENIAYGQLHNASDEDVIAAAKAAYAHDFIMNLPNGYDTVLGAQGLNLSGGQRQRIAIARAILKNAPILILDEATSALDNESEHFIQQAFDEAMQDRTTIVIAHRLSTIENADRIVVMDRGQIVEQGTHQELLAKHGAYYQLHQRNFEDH

A. baumannii MsbA [2] = biological target: T1, A. baumannii MsbA; test: ATPase activity assay; assay type: biochemical; settings: stimulation of ATPase activity; allosteric, central substrate (LPS) binding site

SMILES	ATPase activity, Michaelis-Menten kinetics (A. baumannii MsbA [1])	EC50 (A. baumannii MsbA [2]) [µM]
Nc1ncnc2c1ncn2[C@@H]1O[C@H](COP(=O)(O)OP(=O)(O)OP(=O)(O)O)[C@@H](O)[C@H]1O [ATP]	ATPase activity of A. baumannii MsbA in nanodiscs, measured at varying ATP and TBT1 concentrations	
O=C(Nc1sc2c(c1C(=O)O)CCCC2)c1ccc(Cl)cc1 [TBT1]		~13
